Reference: ChEMBL document CHEMBL4627313, “Discovery of sulfonamides and 9-oxo-2,8-diazaspiro[5,5]undecane-2-carboxamides as human kynurenine aminotransferase 2 (KAT2) inhibitors” (Bioorg Med Chem Lett, 2020)

Biological target: T1, Kynurenine/alpha-aminoadipate aminotransferase, mitochondrial (Homo sapiens, UniProt Q8N5Z0)
Assay: Reversible inhibition of recombinant human KAT2 assessed as reduction in kynurenic acid formation using L-kynurenine as substrate by fluorescence assay
Target sequence in this assay (Q8N5Z0 whole entry): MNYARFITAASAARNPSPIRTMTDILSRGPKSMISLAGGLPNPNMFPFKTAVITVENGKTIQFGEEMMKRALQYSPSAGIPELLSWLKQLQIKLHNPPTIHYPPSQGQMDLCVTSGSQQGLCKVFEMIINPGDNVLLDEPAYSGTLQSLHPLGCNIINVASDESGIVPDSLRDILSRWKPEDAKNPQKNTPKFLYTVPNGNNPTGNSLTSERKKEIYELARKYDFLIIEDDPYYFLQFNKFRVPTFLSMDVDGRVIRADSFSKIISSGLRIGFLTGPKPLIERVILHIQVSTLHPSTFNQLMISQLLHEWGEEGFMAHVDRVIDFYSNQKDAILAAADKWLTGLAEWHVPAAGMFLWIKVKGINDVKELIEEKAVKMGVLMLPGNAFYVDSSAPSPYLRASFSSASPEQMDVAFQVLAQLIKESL

Q: For `COc1ccc(NC(=O)N2CCCC3(CCC(=O)N(C4CC4)C3)C2)cc1` (stereo in doubt; 11 E1), which IC50 is on record?
A: > 100 µM

Q: `O=S(=O)(Nc1nnc(C2(c3ccccc3)CC2)s1)c1cc(F)cc(F)c1` was tested. Which IC50 did it give?
A: 16 µM

Q: How did the IC50 turn out when `CCc1cccc(NC(=O)N2CCCC3(CCC(=O)N(CCC(C)C)C3)C2)c1` (stereo in doubt; 7 E1) was run?
A: 4.4 µM

Q: Which IC50 does the source give for `O=C1CCC2(CCCN(C(=O)Nc3ccc(F)c(Cl)c3)C2)CN1CC1CC1` (stereo in doubt; 10 E2) here?
A: 96.5 µM

Q: With `Cc1ccc(NC(=O)N2CCCC3(CCC(=O)N(CCC(C)C)C3)C2)cc1Cl` (racemic) as the compound, how does the IC50 read?
A: 0.81 µM

Q: How did the IC50 turn out when `CCc1cccc(NC(=O)N2CCCC3(CCC(=O)N(CCC(C)C)C3)C2)c1` (racemic) was run?
A: 8 µM

Q: Which IC50 does the source give for `Cc1cc(C)cc(NC(=O)N2CCCC3(CCC(=O)N(C4CC4)C3)C2)c1` (stereo in doubt; 9 E2) here?
A: 74.9 µM

Q: For `Cc1cc(C)cc(NC(=O)N2CCCC3(CCC(=O)N(C4CC4)C3)C2)c1` (stereo in doubt; 9 E1), which IC50 is on record?
A: 4.5 µM

Q: With `CC(C)C(Cc1nnc(NS(=O)(=O)c2cc(F)cc(F)c2)s1)c1cccc(F)c1` (stereo unspecified) as the compound, how does the IC50 read?
A: 1.6 µM

Q: Which IC50 does the source give for `CCc1cccc(NC(=O)N2CCCC3(CCC(=O)N(CCC(C)C)C3)C2)c1` (stereo in doubt; 7 E2) here?
A: 97 µM

Q: How did the IC50 turn out when `COc1ccc(NC(=O)N2CCCC3(CCC(=O)N(C4CC4)C3)C2)cc1` (stereo in doubt; 11 E2) was run?
A: 15.5 µM

Q: For `O=C1CCC2(CCCN(C(=O)Nc3ccc(F)c(Cl)c3)C2)CN1CC1CC1` (stereo in doubt; 10 E1), which IC50 is on record?
A: 2.4 µM

Biological target: T1, Kynurenine/alpha-aminoadipate aminotransferase, mitochondrial
Assay: Reversible inhibition of recombinant human KAT2 assessed as reduction in kynurenic acid formation at 50 uM using L-kynurenine as substrate by fluorescence assay relative to control
Target sequence in this assay (Q8N5Z0 30-425 limits assumed): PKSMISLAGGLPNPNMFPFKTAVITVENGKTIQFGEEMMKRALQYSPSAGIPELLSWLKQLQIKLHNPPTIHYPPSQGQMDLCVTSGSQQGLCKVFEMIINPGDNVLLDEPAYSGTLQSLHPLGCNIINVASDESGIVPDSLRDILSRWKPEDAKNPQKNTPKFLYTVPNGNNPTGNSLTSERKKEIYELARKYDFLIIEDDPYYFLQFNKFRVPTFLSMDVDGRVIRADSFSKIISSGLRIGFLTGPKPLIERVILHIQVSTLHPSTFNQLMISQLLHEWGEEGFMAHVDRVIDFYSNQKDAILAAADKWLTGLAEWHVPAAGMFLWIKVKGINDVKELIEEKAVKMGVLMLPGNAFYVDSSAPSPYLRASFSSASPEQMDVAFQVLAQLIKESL

Q: For `O=S(=O)(NC1CCNC1)c1ccc(Cl)cc1C(F)(F)F` (stereo unspecified), which inhibition is on record?
A: 57%

Q: With `O=S(=O)(Nc1nnc(C2(c3ccccc3)CC2)s1)c1cc(F)cc(F)c1` as the compound, how does the inhibition read?
A: 88%

Q: For `O=S(=O)(Nc1nnc(CC2CCCC2)o1)c1ccccc1`, which inhibition is on record?
A: 47%

Biological target: T1, Kynurenine/alpha-aminoadipate aminotransferase, mitochondrial
Assay: Binding affinity to recombinant human KAT2 assessed as change in temperature by thermal shift assay
Target sequence in this assay (Q8N5Z0 30-425 limits assumed): as above

Q: Which deltaT does the source give for `O=S(=O)(Nc1nnc(C2(c3ccccc3)CC2)s1)c1cc(F)cc(F)c1` here?
A: 1.7 °C
